Data as given in patent EP0014981A2, “Medicaments and pharmaceutical compositions with cytostatic activity” (Henkel Kommanditgesellschaft auf Aktien, priority 1979, dated 1980).

What was measured:
Type in all cases: in vivo, Mäuse
[1] = Tolerated maximum daily dose in mice, i.p. aqueous solutions; conditions: clear toxic effects only at higher doses
Experimental: Im Tierexperiment hat sich die Verwendung von frisch hergestellten, wäßrigen Lösungen, die i.p. gegeben werden, als zweckmäßig erwiesen. Von α- beziehungsweise β-Triglycidylisocyanurat kann bei Mäusen die Maximaldosis p.die 100 mg/kg Maus betragen. Deutliche toxische Wirkungen treten erst bei höherer Dosierung auf. Als optimale Dosierung hat sich in vielen Fällen eine Gabe von 30 mg bis 60 mg/kg Maus während einer Applikationsdauer von 1 bis 9 Tagen bewährt.

[2] = tested on: Tumorart P 388 (Leucämie); experiment: Leukaemia P 388 in mice, NCI protocol 1 200, survival; conditions: for Heilung: % of animals
Experimental: (§1) Die nachfolgenden Beispiele wurden durchgeführt nach Testvorschriften des National Cancer Institute Bethesda, Maryland 200014, veröffentlicht in "Cancer Chemotherapy Reports" Part. 3, Sept. '72, Vol. 3, Nr. 2. Als Wirksubstanz wurde verwendet α-Triglycidylisocyanurat (F 106° C) sowie β-Triglycidylisocyanurat (F 158 °C), beide mit 16,1 % Epoxidsauerstoffgehalt (Herstellung siehe US-PS 3,337,509).
(§2) Alle wäßrigen 1 %igen Injektionslösungen wurden unmittelbar vor der Applikation frisch hergestellt.
Bei Mäusen wurde gemäß Protokoll 1 200 (Seite 9 l.c.) die Tumorart P 388 (Leucämie) i.p. mit 10^6 Zellen/Maus ge- setzt. Die unbehandelten Tiere hatten eine mittlere Überlebensdauer von 10,5 Tagen.
Bei Mäusen wurde gemäß Protokoll 1 200 (Seite 9 1.c.) die Tumorart P 388 Leucämie i.p. mit 10^6 Zellen/Maus gesetzt. Die unbehandelten Tiere hatten eine mittlere überlebensdauer von 10 Tagen.

[3] = tested on: Lungencarcinom (Lewis); experiment: Lewis lung carcinoma in mice, NCI protocol 1.400, inhibition of metastases; conditions: days 1 to 11, after 23 days
Experimental: as §1, §2
Gemäß Protokoll 1.400 (Seite 13 1.c.) wurden bei Mäusen Zellen, s.c. eines 1 mm^3 Stücks Lungencarcinom (Lewis) implantiert. Dann erfolgte vom 1. bis 11. Tag i.p. Verabfolgung von 40 mg/kg p.die an α-TGI bzw. 90 mg/kg p.die an β -TGI.

[4] = tested on: Leukämie L 1210; experiment: Leukaemia L 1210 in mice, NCI protocol 1.100, survival; conditions: for Überlebende / ganze Gruppe, leukäm. M. / Überlebende / ganze Gruppe, Kontrollgruppe: after 30 days; for Überlebende / ganze Gruppe, Kontrollgruppe: control group
Experimental: as §1, §2
Bei Mäusen wurde gemäß Protokoll 1.100 (Seite 7 1.c.) Leukämie L 1210 durch i.p. Verabreichung von 0,1 ml verdünnter Erregerlösung entsprechend 10^5 Zellen erzeugt. Bei der Kontrollgruppe betrug die mittlere Überlebensdauer 8 Tage (m.s.t.).
B) Der Einfluß der Behandlungsplanung auf die therapeutische Wirksamkeit von α-TGI bei Tumor L 1210 nach 30 Tagen ist der nachfolgenden Tabelle I zu entnehmen.

[5] = tested on: gegenüber Cyclophosphamid (NSC 26271) resistente Leukämieform von P 388; experiment: Cyclophosphamide-resistant P 388 leukaemia in mice, survival; conditions: 10 mice
Experimental: as §1, §2
Eine gegenüber Cyclophosphamid (NSC 26271) resistente Leukämieform von P 388 wurde mit α-T3I und Cyclophosphamid behandelt. Jede Gruppe bestand aus 10 Mäusen.

[6] = tested on: Coloncarcinom 26; experiment: Colon carcinoma 26 i.p. in mice, survival; conditions: for Mäuse lebend, 60 Tage / alle Mäuse lebend (day up to which): groups of 10 mice
Experimental: as §1, §2
8) Durch i.p. Inplantation (1 mm^3 Coloncarcinom 26) wurde bei Gruppen von jeweils 10 Mäusen ein Ca gesetzt Die Behandlung erfolgte durch i.p.-Verabfolgung von α-TGI. In der nachfolgenden Tabelle III sind die Ergebnisse in Abhängigkeit der jeweils am 1., 5. und 9. Tag applizierten Menge wiedergegeben.

[7] = tested on: Coloncarcinom 38; experiment: Colon carcinoma 38 s.c. in mice, tumour weight; conditions: after 20 days (control 512 mg/Maus)
Experimental: as §1, §2
A)Gruppen von 10 Mäusen wurde etwa 1 mm^3 Coloncarcinom 38 s.c. implantiert. Das mittlere Turaorgetuicht betrug bei der unbehandelten Kontrollgruppe nach 20 Tagen: 512mg/Maus.

[8] = tested on: Ependymoblastom; experiment: Intracerebrally implanted ependymoblastoma in mice, survival; conditions: 40 mg/kg p.die, 9 days
Experimental: as §1, §2
Bei einer Testgruppe von Mäusen wurde durch intracerebra1 mm^3 eines Gewebes von Ependymoblastom implantiert. Die mittlere Überlebensdauer bei der Kontrollgruppe be- trug 19,3 Tage.

[9] = tested on: Sarcom 180; experiment: Sarcoma 180 i.p. in mice, survival; conditions: 30 mg/kg i.p., days 1 to 9
Experimental: as §1, §2
Durch i.p-Verabfolgung von 10^6 Zellen pro Maus wurde das Sarcom 180 gesetzt. Die unbehandelte Kontrollgrüppe hatte eine mittlere überlebenszeit von 20, 2 Tagen.

[10] = tested on: Melanom B16; experiment: Melanoma B 16 in mice, NCI instruction 1.300, survival; conditions: days 1 to 9
Experimental: as §1, §2
bei Mäusen wurde gemäß Anweisung 1.300 das 1/10 Homogenzt teranom B 16 jeweils 0,5 ml pro Maus i.p, verabfolgt gergl. S. 11 1,c.).
Die Kontrollgruppe hatte eine mittlere Überlebenszeit von 15,3 Tagen (m.s.t.).
Behandelte Gruppen erhielten vom 1. bis 9. Tag verschiedene Mengen α-TGI i.p. In der nachfolgenden Tabelle II ist die mittlere überlebensdauer und T/C in Ahhängigkeit der p.die gegebenen Menge Wirkstoff wiedergegeben.

[11] = 50 mg/kg p.die i.p., days 1 to 9
[12] = 100 mg/kg p.die i.p., days 1 to 9
[13] = 50 mg/kg p.die i.p., days 1 to 9, group of 6 mice

O=c1n(CC2CO2)c(=O)n(CC2CO2)c(=O)n1CC1CO1 (single isomer, unassigned) [β-TGI, β-Triglycidylisocyanurat]
Maximaldosis p.die [1]: 100 mg/kg Maus | T/C ([2]; 25 mg/kg p.die, 9 doses): 174% | T/C ([2]; 50 mg/kg p.die i.p., 9 days): 179% | Heilung ([2]; 50 mg/kg p.die, 9 days): 17% | T/C, Verlängerungsrate (mittlere Lebenserwartung gegenüber der Kontrollgruppe) ([2]; 100 mg/kg p.die i.p., 9 days): 228% | Heilung ([2]; 100 mg/kg p.die, 9 days): 17% | Hemmung an Metastasen gegenüber der Kontrollgruppe ([3]; 90 mg/kg p.die i.p.): 87% | T/C [4, 11]: 203% | mittlere Überlebensdauer [4, 11]: 16,3 Tage | T/C [4, 12]: 315% | mittlere Überlebensdauer [4, 12]: 25,2 Tage

O=c1n(CC2CO2)c(=O)n(CC2CO2)c(=O)n1CC1CO1 (single isomer, unassigned) [α-TGI, α-Triglycidylisocyanurat]
Mäuse überlebten 60 Tage ([5]; 40 mg/kg, days 1 to 9): alle | T/C ([5]; 40 mg/kg, days 1 to 9): 478% | Mäuse lebend, 60 Tage ([6]; 25 mg i.p. on days 1, 5 and 9): 6 von 10 | alle Mäuse lebend (day up to which) ([6]; 25 mg i.p. on days 1, 5 and 9): 25 Tage | Mäuse lebend, 60 Tage ([6]; 50 mg i.p. on days 1, 5 and 9): 60 Tage noch 10 Mäuse lebend | Mäuse lebend, 60 Tage ([6]; 100 mg i.p. on days 1, 5 and 9): 4 Mäuse | alle Mäuse lebend (day up to which) ([6]; 100 mg i.p. on days 1, 5 and 9): 49 Tage | mittleres Tumorgewicht ([7]; 50 mg/kg p.die on days 2, 9 and 16): 183 mg pro Maus | mittleres Tumorgewicht ([7]; 50 mg/kg p.die on days 2 and 9): 153 mg pro Maus | MTD ([1]; mouse, in vivo, ip, read-out: Maximaldosis p.die): 100 mg/kg/day | T/C [8]: 165% | T/C [9]: 183% | T/C ([2]; 25 mg/kg p.die, 9 doses): 196% | T/C ([2]; 50 mg/kg p.die i.p., 9 days): 200% | Heilung ([2]; 50 mg/kg p.die, 9 days): 17% | T/C, Verlängerungsrate (mittlere Lebenserwartung gegenüber der Kontrollgruppe) ([2]; 100 mg/kg p.die i.p., 9 days): 285% | behandelte Mäuse lebten länger als 40 Tage (als geheilt anzusehen) ([2]; 100 mg/kg p.die i.p., 9 days, fraction of treated mice): Die Hälfte | T/C ([10]; 25 mg p.die i.p.): 227% | m. s. t. (Tage) ([10]; 25 mg p.die i.p.): 36,0 Tage | T/C ([10]; 50 mg p.die i.p.): 234% | m. s. t. (Tage) ([10]; 50 mg p.die i.p.): 37,0 Tage | T/C ([10]; 12,5 mg p.die i.p.): 188% | m. s. t. (Tage) ([10]; 12,5 mg p.die i.p.): 29,8 Tage | Hemmung an Metastasen gegenüber der Kontrollgruppe ([3]; 40 mg/kg p.die i.p.): 92% | Überlebende / ganze Gruppe, leukäm. M. ([4]; 40 mg 9x i.p. (1.bis 9.Tag)): 8/10 | Überlebende / ganze Gruppe, Kontrollgruppe ([4]; 40 mg 9x i.p. (1.bis 9.Tag)): 8/8 | Überlebende / ganze Gruppe, leukäm. M. ([4]; 50 mg 5x i.p. (1.bis 5.Tag)): 5/10 | Überlebende / ganze Gruppe, Kontrollgruppe ([4]; 50 mg 5x i.p. (1.bis 5.Tag)): 7/8 | T/C [4, 11]: 297% | mittlere Überlebensdauer [4, 11]: 23,8 Tage | 30 Tage erreichten [4, 13]: 3 Mäuse | Heilungsrate [4, 13]: ~50%

O=P1(N(CCCl)CCCl)NCCCO1 (stereo not shown) [Cyclophosphamid, reference compound]
T/C ([5]; 180 mg/kg): 150% | Überlebenszeit der behandelten Mäuse ([5]; 180 mg/kg): < 30 Tage

O=c1[nH]cc(F)c(=O)[nH]1 [Fluoruracil, reference compound]
mittlere überlebensdauer ([6]; positive comparison, dose not given, 10 mice): 55 Tage | Mäuse lebend am 60. Tag ([6]; positive comparison, dose not given, of 10 mice): 2 Mäuse

CC1(Cn2c(=O)n(CC3(C)CO3)c(=O)n(CC3(C)CO3)c2=O)CO1 (stereo not shown) [Tri-(2-methylglycidyl)-isocyanurat]
T/C ([2]; 50 mg/kg p.die i.p., 9 days): 150% | T/C, Verlängerungsrate (mittlere Lebenserwartung gegenüber der Kontrollgruppe) ([2]; 100 mg/kg p.die i.p., 9 days): 170%
